Here are results for 3 molecules from ChEMBL document CHEMBL1130420 (J Med Chem, 1997).

For assay [1], the target named is T1, Estrogen receptor (Mus musculus) (UniProt O08537+P19785). Kind of assay: (§1) Uterine weight after 9 day treatment at 0.47 ug by oral gavage to ovariectomised mice without estrone. In kind it is functional, tissue-based. Conditions: Uterus.
The target in assay [2] is T2, Estrogen receptor (Homo sapiens, UniProt Q92731+P03372). Particulars: t-47d.
Description: Inhibition of estradiol-stimulated T-47D cell proliferation.
In assay [3] the target is T1, Estrogen receptor (Mus musculus). Kind of assay: Uterine weight after 9 day treatment at 47 ug by oral gavage to ovariectomised mice with estrone. Conditions: Uterus. In kind it is functional, tissue-based.
Assay [4] shares this target. Kind of assay: (§2) Uterine weight after 9 day treatment at 0.47 ug by oral gavage to ovariectomised mice with estrone. Conditions: Uterus. In kind it is functional, tissue-based.
The target is the same in assay [5]. Kind of assay: (§3) Uterine weight after 9 day treatment at 47 ug by oral gavage to ovariectomised mice without estrone. It counts as functional, tissue-based. Conditions: Uterus.
Assay [6] has the same target. Kind of assay: Uterine weight after 9 day treatment at 4.7 ug by oral gavage to ovariectomised mice with estrone. It counts as functional, tissue-based. Conditions: Uterus.
In assay [7] the target is T2, Estrogen receptor. Particulars: t-47d. The source holds these as a separate data set.
Description: Apparent binding affinity against estradiol-stimulated T-47D cell proliferation
The target of assay [8] is T1, Estrogen receptor (Mus musculus). Kind of assay: Uterine weight after 9 day treatment at 1.6 ug by oral gavage to ovariectomised mice without estrone. In kind it is functional, tissue-based. Particulars: Uterus.
For assay [9] the target is unchanged. Kind of assay: (§4) Uterine weight after 9 day treatment at 1.6 ug by oral gavage to ovariectomised mice with estrone. It counts as functional, tissue-based. Conditions: Uterus.
The target is the same in assay [10]. Put plainly: (§5) Uterine weight after 9 day treatment at 4.7 ug by oral gavage to ovariectomised mice without estrone. In kind it is functional, tissue-based. Particulars: Uterus.
Assay [11] has as its target T2, Estrogen receptor.
Description: Inhibition of estradiol binding to estrogen receptor in Human Breast cancer cytosol (3.3% ethanol)
The target in assay [12] is T2, Estrogen receptor. Put plainly: Relative Binding Affinity for estrogen receptor in Human Breast cancer or normal uterine cytosol in 3.3%ethanol compared to estradiol. It counts as protein assay. Conditions: Uterus.
Assay [13] deals with T1, Estrogen receptor (Mus musculus). Kind of assay: (§6) Uterine weight after 9 day treatment at 16 ug by oral gavage to ovariectomised mice without estrone. It counts as functional, tissue-based. Conditions: Uterus.
Assay [14] has the same target. Put plainly: (§7) Uterine weight after 9 day treatment at 16 ug by oral gavage to ovariectomised mice with estrone. In kind it is functional, tissue-based. Conditions: Uterus.
Assay [15] shares this target. The description is as §1. It counts as functional, tissue-based. Conditions: Uterus. The source holds these as a separate data set.
Assay [16] concerns the target T2, Estrogen receptor. Put plainly: Stimulation of alkaline phosphatase activity in human endometrial Ishikawa cells with 1 nM E2 estradiol. In kind it is functional, cell-based.
Assay [17] deals with T1, Estrogen receptor (Mus musculus). The assay is described as §7. In kind it is functional, tissue-based. Conditions: Uterus. This is another data set of the same source.
For assay [18] the target is unchanged. The description is as §2. In kind it is functional, tissue-based. Particulars: Uterus. This is another data set of the same source.
The target is the same in assay [19]. Described as §3. Particulars: Uterus. In kind it is functional, tissue-based. This is another data set of the same source.
The target is the same in assay [20]. Described as §6. It counts as functional, tissue-based. Particulars: Uterus. The source holds these as a separate data set.
Assay [21] shares this target. Described as §3. In kind it is functional, tissue-based. Particulars: Uterus. The source holds these as a separate data set.
For assay [22] the target is unchanged. Described as §4. In kind it is functional, tissue-based. Conditions: Uterus. This is another data set of the same source.
The target in assay [23] is T2, Estrogen receptor. The source holds these as a separate data set.
Description: Apparent inhibition constant for estrogen receptor in Human uterine cytosol in 3.3%ethanol
Assay [24] deals with T1, Estrogen receptor (Mus musculus). The description is as §5. In kind it is functional, tissue-based. Particulars: Uterus. This is another data set of the same source.
For assay [25] the target is unchanged. Described as §5. It counts as functional, tissue-based. Conditions: Uterus. This is another data set of the same source.

A word on the IC50: it is the midpoint of a concentration-inhibition curve. A low value points to inhibition by little substance. What is called Ki is the equilibrium dissociation constant of an inhibitor or competing ligand from its target. Read a low Ki as a stronger hold on the target.

T1 sequence (O08537 whole entry, looked up): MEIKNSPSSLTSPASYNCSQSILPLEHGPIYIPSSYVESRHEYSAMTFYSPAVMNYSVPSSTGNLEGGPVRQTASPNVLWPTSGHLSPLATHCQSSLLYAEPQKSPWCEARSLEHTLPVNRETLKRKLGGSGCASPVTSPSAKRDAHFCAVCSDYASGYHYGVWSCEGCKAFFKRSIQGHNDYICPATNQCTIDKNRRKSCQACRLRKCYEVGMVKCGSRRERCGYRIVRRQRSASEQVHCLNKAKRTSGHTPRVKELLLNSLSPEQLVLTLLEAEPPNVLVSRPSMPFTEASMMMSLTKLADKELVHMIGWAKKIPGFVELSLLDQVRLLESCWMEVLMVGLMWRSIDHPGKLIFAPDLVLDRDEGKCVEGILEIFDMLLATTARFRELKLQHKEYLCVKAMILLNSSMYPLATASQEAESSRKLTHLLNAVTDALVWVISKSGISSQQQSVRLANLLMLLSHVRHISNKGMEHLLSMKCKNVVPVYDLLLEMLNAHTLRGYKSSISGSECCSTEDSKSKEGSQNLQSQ
T1 sequence (P19785 whole entry, looked up): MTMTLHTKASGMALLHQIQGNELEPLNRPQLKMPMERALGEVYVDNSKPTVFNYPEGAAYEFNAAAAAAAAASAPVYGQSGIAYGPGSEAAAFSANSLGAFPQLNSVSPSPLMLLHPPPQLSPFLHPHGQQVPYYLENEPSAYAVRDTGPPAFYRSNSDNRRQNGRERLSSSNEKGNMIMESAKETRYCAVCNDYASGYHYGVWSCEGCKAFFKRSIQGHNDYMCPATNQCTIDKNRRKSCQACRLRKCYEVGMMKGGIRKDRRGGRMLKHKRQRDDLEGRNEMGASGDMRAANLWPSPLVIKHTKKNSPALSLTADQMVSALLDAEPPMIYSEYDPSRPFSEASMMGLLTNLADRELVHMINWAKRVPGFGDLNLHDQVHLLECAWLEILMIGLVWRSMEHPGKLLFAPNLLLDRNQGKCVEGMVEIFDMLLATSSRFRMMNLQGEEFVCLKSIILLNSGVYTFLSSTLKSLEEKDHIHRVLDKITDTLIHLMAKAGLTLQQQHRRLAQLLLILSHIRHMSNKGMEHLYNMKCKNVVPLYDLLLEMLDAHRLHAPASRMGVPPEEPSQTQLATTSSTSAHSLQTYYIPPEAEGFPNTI

For the molecule `CC1=C(c2ccc(OC(=O)C(C)(C)C)cc2)[C@@H](c2ccc(OCCN3CCCCC3)cc2)Oc2cc(OC(=O)C(C)(C)C)ccc21`, the Weight in assay [1] was 16.5 mg; in assay [3], 61.1 mg; in [4], 83.1 mg; in assay [5], 18 mg; in assay [6] it was 91.2 mg; in assay [8], 17.2 mg. The Weight was 88.6 mg in [9], 19.8 mg in assay [10], 15.7 mg in assay [13] and 75.7 mg in assay [14]. For the same molecule, the IC50 at Estrogen receptor [2] was determined as 36.2 nM. Besides, the inhibition constant (Ki) at Estrogen receptor [7] is listed as 4.22 nM; on Estrogen receptor [11] it was over 270 nM. The molecule further displayed an RBA on Estrogen receptor [12] of under 0.04.

As to `CC1=C(c2ccc(OC(=O)C(C)(C)C)cc2)[C@H](c2ccc(OCCN3CCCCC3)cc2)Oc2cc(OC(=O)C(C)(C)C)ccc21`, the Weight came to 19 mg in assay [1]; 31.7 mg in assay [3]; 72.9 mg in assay [4]; 21 mg in assay [15]; 21.1 mg in assay [5]; 29.2 mg in assay [17]. Further, the Weight came to 84 mg in [18]; 28.1 mg in [19]; 33.3 mg in assay [6]; 24 mg in [20]; 25 mg in assay [21]; 24.1 mg in assay [8]. Further, the Weight worked out at 53.4 mg in [9]; 24.5 mg in assay [10]; 53 mg in assay [22]; 35.3 mg in assay [24]; 19.4 mg in [13]; 28.9 mg in assay [14]. The molecule further returned a Weight in [25] of 24.7 mg. For the same molecule, the values for the IC50 against Estrogen receptor [2] and on Estrogen receptor [16] were 0.14 nM and 1.3 nM, respectively. In addition, the Ki on Estrogen receptor [16] is on record as 0.023 nM; on Estrogen receptor [7], 0.016 nM; at Estrogen receptor [11], 4.71 nM; on Estrogen receptor [23] it was 11.14 nM.

On Estrogen receptor [2], `Oc1ccc(C2=Cc3ccc(O)cc3OC2c2ccc(OCCN3CCCCC3)cc2)cc1` (stereo unspecified) had an IC50 of 4.6 nM. The molecule further returned a Ki on Estrogen receptor [7] of 0.525 nM.
